“And” between values parts separate entries of the source, which are not always exact repeats. Equal entries are not always repeated. Structures can show the parent of a compound that is named as a salt.
Experiments:
Type in all cases: physicochemical
[1] = Assessment of stability in water (slurry at 25° C., form identified by XRPD); conditions: slurried in water at 25° C.; for Form after 2 days / Form after 4 days: Table A; for Form after 2 days / Form after 4 days / Stability in water (overall summary): hydrochloride; for Stability in water (overall summary): summary of Tables A-D
Protocol: Form I, Form II or a mixture thereof was slurried in water at 25° C. to assess stability. […] XRPD was used to identify crystalline form.

[2] = Solubility in water, gravimetric method
Protocol: Solubility was measured using the gravimetric method by separately suspending Form I and Form II in water with stirring at room temperature for 6 hours.

[3] = Conversion of Form I to Form II by slurrying in water at 25° C. (XRPD); conditions: slurried in water at 25° C. with stirring
Protocol: Form I was slurried in water for 1 day and for 5 days at 25° C. with stirring.

[4] = Conversion of Form II to Form I by slurrying in t-butylmethyl ether (XRPD); conditions: slurried in t-butylmethyl ether for 4 days at room temperature
From the text: Form II was slurried in t-butylmethyl ether for 4 days at room temperature. The resulting solid was characterized by XRPD as Form I.

Form after 2 days ([1]; XRPD)	solubility at 6 h ([2]; water, thermodynamic from solid, suspended in water with stirring at room temperature for 6 hours, gravimetric) [mg/mL]	Form after 4 days ([1]; XRPD)	Form after 3 days ([1]; Table C, XRPD)	Crystalline form after 5 days ([3]; 5 days)	Solubility-Water ([2]; suspended in water with stirring at room temperature for 6 hours, gravimetric, hydrochloride)	Resulting solid form [4]	SMILES	Stability in water (overall summary) [1]	Crystalline form after 1 day ([3]; 1 day)	Relative thermodynamic stability based on solubility data ([2]; inferred from water solubility of Forms I and II, hydrochloride)
trace I	–	–	–	–	–	–	NC[C@H]1Cc2cc(F)cc(-c3c(Cl)cccc3Cl)c2O1 [50:50 I:II, {[(2R)-7-(2,6-dichlorophenyl)-5-fluoro-2,3-dihydro-1-benzofuran-2-yl]methyl}amine hydrochloride]	–	–	–
I, trace II	67	Increased amount of II	mainly II, some I	no detectable amount of Form I	–	–	NC[C@H]1Cc2cc(F)cc(-c3c(Cl)cccc3Cl)c2O1 [Form I, {[(2R)-7-(2,6-dichlorophenyl)-5-fluoro-2,3-dihydro-1-benzofuran-2-yl]methyl}amine hydrochloride]	converted to Form II under most of the conditions tested	substantial conversion of the solid from Form I to Form II	–
–	–	–	–	–	51 mg/mL and 50 mg/mL	Form I	NC[C@H]1Cc2cc(F)cc(-c3c(Cl)cccc3Cl)c2O1 [Form II, {[(2R)-7-(2,6-dichlorophenyl)-5-fluoro-2,3-dihydro-1-benzofuran-2-yl]methyl}amine hydrochloride]	stable in water	–	thermodynamically more stable in water than Form I
increased amount of II	–	increased amount of II	–	–	–	–	NC[C@H]1Cc2cc(F)cc(-c3c(Cl)cccc3Cl)c2O1 [I seeded with II, {[(2R)-7-(2,6-dichlorophenyl)-5-fluoro-2,3-dihydro-1-benzofuran-2-yl]methyl}amine hydrochloride]	–	–	–

From patent US20060252825A1, “Crystal forms of {[(2r)-7-(2,6-dichlorophenyl)-5-fluoro-2,3-dihydro-1-benzofuran-2-yl]methyl}amine hydrochloride” (Wyeth, priority 2005, published 2006)
